Assays:
NCI/ADR-RES = assay: Cytotoxicity against human NCI/ADR-RES cells; format: functional; details: read-out: ED50 (the source's name)
[1] = Inhibition of tubulin assembly
MCF7 = assay: Cytotoxicity against human MCF7 cells; format: functional; details: read-out: ED50 (the source's name)

Structure (SMILES) | EC50 (NCI/ADR-RES) [µM] | ED50 [1] [µM] | EC50 (MCF7) [µM]
CC(=O)O[C@H]1C(=O)[C@@]2(C)[C@H]([C@H](OC(=O)c3ccccc3)[C@]3(O)C[C@H](OC(=O)[C@H](O)[C@@H](NC(=O)c4ccccc4)c4ccccc4)C(C)=C1C3(C)C)[C@]1(OC(C)=O)CO[C@@H]1C[C@@H]2O [PACLITAXEL] | 2 | 1.2 | 0.0021
CC(=O)O[C@H]1C(=O)[C@@]2(C)[C@H]([C@H](OC(=O)c3ccccc3)[C@]3(O)C[C@H](OC(=O)[C@H](O)[C@@H](NC(=O)OC(C)(C)C)C(C)(C)CO)C(C)=C1C3(C)C)[C@]1(OC(C)=O)CO[C@@H]1C[C@@H]2O | 12.5 | 2.2 | 0.56
